Experimental data taken from patent publication US9795570B2, “Modulation of macrophage phenotype by emodin” (University of South Carolina, priority 2016, dated 2017).

Columns and labels:
EO771 cells [1] = assay: Tumor cell gene expression (qPCR); assay type: cell-based, mouse; details: 24 h post-treatment
Procedure: (§1) For qPCR, cells were lysed with Qiazol, and RNA was extracted using Zymo research Direct-zol RNA isolation kit. cDNA was then made from 1 μg of RNA using iScript cDNA Synthesis Kit (Bio-Rad Life Science, Hercules, Calif.). Run conditions were 95° C. for 10 s, 58° C. for 15 s, 70° C. for 15 s. Samples were run in duplicate on a Bio-rad CFX Real Time thermocycler.

4T1 cells = assay: Tumor cell gene expression (qPCR); assay type: cell-based, mouse; details: 24 h post-treatment
Procedure: as §1

[2] = tested on: mouse peritoneal macrophages; assay: Macrophage migration assay toward MCP1 (transwell); assay type: cell-based; details: LPS/IFNγ or IL4 stimulated, emodin 50 μM, MCP1 20 ng/ml
Procedure: Macrophages were stimulated with IL4 or LPS+IFNγ for 24 h with or without emodin. The media was then removed and the cells were washed with PBS. The cells were then resuspended in DMEM with scraping and 2×10^5 macrophages were seeded in triplicate into the top chamber of transwell inserts with 8 μm pores (Corning) and place in 24 well plates. Serum free DMEM with 20 ng/ml MCP1 was placed in the bottom of the wells. After 4 h, inserts were fixed in 4% paraformaldehyde for 20 min; the cells in upper inserts were swabbed using cotton buds, and the cells left on the membrane were stained with DAPI (1 μg/ml) for 1 min. The inserts were then cut out, mounted onto slides and imaged under a Nikon Eclipse NI-U fluorescence microscope (Nikon Inc. Melville, N.Y.) at 20× magnification (5 fields/insert). DAPI stained cells were quantified using Nikon NIS-Elements software.

[3] = tested on: mouse peritoneal macrophages; assay: Whole genome microarray, macrophages stimulated with LPS/IFNγ; assay type: cell-based
Procedure: Three milliliters of 4% Thioglycolate solution was injected intraperitoneally into 8-12 week old C57BL/6 mice. Three days later, macrophages were collected by lavaging the peritoneal cavity with PBS. The cells were then resuspended in DMEM containing 10% FBS. After 2 h, non-adherent cells were washed away with PBS and the macrophages were cultured overnight in serum free DMEM. The macrophages were then treated with DMEM containing IL4 (10 ng/ml, BioAbChem Inc. Ladson, S.C.) or LPS (100 ng/ml, Sigma-Aldrich) and IFNγ (20 ng/ml, BioAbChem Inc) with or without emodin. Emodin was purchased from Nanjing Langze Medicine and Technology Co. Ltd (Nanjing, China) and dissolved in DMSO at a concentration of 10 mg/ml as a stock solution.
Microarray analysis was carried out as described previously, with a few alterations. Macrophages were stimulated with IL4 for 6 h or LPS+IFNγ for 24 h with or without emodin (50 μM). Samples were prepared in biological replicates of 4. Cells were lysed with Qiazol and RNA was extracted using Qiagen's miRNeasy kit. Agilent's 2100 Bioanalyzer was used to determine the quality and quantity of the RNA. […] The RNA was amplified and labeled with Agilent's Low Input Quick Amp Labeling Kit (Agilent) according to the manufacturer's instructions. Labeled RNA was then purified using Qiagen's RNeasy Mini Kit (Qiagen, Valencia, Calif.) and dye incorporation and cRNA yield were assessed. Labeled samples were hybridized to Agilent Whole Mouse Genome Microarrays 8×60K (Agilent) using Agilent's Gene Expression Hybridization Kit (Agilent) according to the manufacturer's instructions. Microarray analysis was performed using an Agilent DNA Microarray Scanner System (Cat. # G2565CA).
For microarray analysis, data was extracted from images with Feature Extractor Software version 10.7.3.1 (Agilent); background correction using detrending algorithms was performed. Subsequently, background-corrected data was uploaded into GeneSpring GX version 11.5.1 for analysis. In this process, data was log 2 transformed, quantile normalized and baseline transformed using the median of all samples. […] Differentially expressed genes were determined by analysis of the data using the Mann-Whitney unpaired statistics. A cutoff p-value of 0.05 and a fold change cutoff value of 2.0 were used to filter the data. Pathway analysis was performed using Ingenuity Pathway Analysis software.

EO771 cells [4] = assay: Proliferation, Ki67 staining; assay type: cell-based, mouse; details: 24 h
Procedure: For Ki67 staining, 4T1 and EO771 tumor cells were seeded into 6 well plates and cultured in SF DMEM overnight. They were then treated with various concentrations of emodin (0-50 μM) for 24 h. The cells were resuspended with trypsin plus EDTA and fixed with 1% paraformaldehyde. The cells were then permeabilized with 0.25% Triton X-100 and stained with anti-Ki67 […] (Abcam). The cells were washed and incubated with goat anti-rabbit Alexa 488 (Invitrogen, Eugene, Oreg.). After washing, the samples were analyzed by flow cytometry using a BD FACS flow cytometer and CXP software version 2.2. Data were collected for 10,000 live events per sample.

[5] = tested on: peritoneal macrophages and 4T1 cells; assay: Tumor cell-macrophage adhesion; assay type: cell-based, mouse
Procedure: Tumor cell monolayers (80-90% confluent) and macrophages were treated with emodin (0-25 μM) overnight. The cells were then washed multiple times with PBS, and fresh SF DMEM was added. Macrophages were resuspended with scraping and 5×10^5 cells were seeded onto the tumor cell monolayers. After 1 h the non-adherent cells were washed away, and the adherent cells were resuspened with Trypsin and mild scraping. The total number of cells was counted, and cells were stained with anti-F4/80 FITC (Biolegend). The cells were analyzed on a Beckman Coulter FC500.

SMILES: Cc1cc(O)c2c(c1)C(=O)c1cc(O)cc(O)c1C2=O [emodin]
- expression of MCP1, CSF1, and CSF2 (EO771 cells [1]): significantly inhibited
- tumor cell expression of Thy1 (EO771 cells [1]): significantly inhibited
- expression of MCP1, CSF1, and CSF2 (4T1 cells): significantly inhibited
- tumor cell expression of Thy1 (4T1 cells): significantly inhibited
- macrophage migration toward MCP1 [2]: significantly reduced
- fold reduction of LPS/IFNγ induced expression ([3]; CD86, microarray, emodin 50 μM): 7.74 fold
- fold change of expression under LPS/IFNγ stimulation ([3]; CXCL2, microarray): −10.31 fold
- fold change of expression under LPS/IFNγ stimulation ([3]; CXCL10, microarray): −2.01 fold
- fold reduction of LPS/IFNγ induced expression ([3]; H2-Oa, microarray, emodin 50 μM): 3.85 fold
- fold reduction of LPS/IFNγ induced expression ([3]; H2-Ob, microarray, emodin 50 μM): 6.42 fold
- fold reduction of LPS/IFNγ induced expression ([3]; IL1β, microarray, emodin 50 μM): 13.64 fold
- fold reduction of LPS/IFNγ induced expression ([3]; IL6, microarray, emodin 50 μM): 3.25 fold
- genes changed by emodin in both groups ([3]; LPS/IFNγ and IL4 stimulation, microarray): 1,575 genes
- genes whose expression was changed by emodin in at least one of the conditions ([3]; LPS/IFNγ or IL4 stimulation, microarray): ~6,500 genes
- genes on which emodin had inverse effects under the two different stimuli ([3]; LPS/IFNγ vs IL4, microarray): 86 genes
- fold reduction of LPS/IFNγ induced expression ([3]; MMP2, microarray, emodin 50 μM): 11.86 fold
- fold reduction of LPS/IFNγ induced expression ([3]; MMP9, microarray, emodin 50 μM): 28.87 fold
- fold increase of expression under LPS/IFNγ stimulation ([3]; Mrc1, microarray): 8.72 fold
- fold change of expression under LPS/IFNγ stimulation ([3]; TNFα, microarray): −2.47 fold
- fold reduction of LPS/IFNγ induced expression ([3]; TNFα, microarray, emodin 50 μM): 2.01 fold
- fold increase of expression under LPS/IFNγ stimulation ([3]; YM1, microarray): 2.04 fold
- LPS/IFNγ responsive genes whose induced changes were attenuated ([3]; emodin 50 μM, LPS/IFNγ 24 h): about 31%
- Em + LPS vs. LPS/IFN (gene expression) ([3]; gene CCL2, microarray, LPS/IFNγ 24 h, emodin 50 μM): −12.06
- Em + LPS vs. LPS/IFN (gene expression) ([3]; gene CCL5, microarray, LPS/IFNγ 24 h, emodin 50 μM): −5.41
- Em + LPS vs. LPS/IFN (gene expression) ([3]; gene CD86, microarray, LPS/IFNγ 24 h, emodin 50 μM): −7.74
- Em + LPS vs. LPS/IFN (gene expression) ([3]; gene CXCL2, microarray, LPS/IFNγ 24 h, emodin 50 μM): −2.47
- Em + LPS vs. LPS/IFN (gene expression) ([3]; gene CXCL3, microarray, LPS/IFNγ 24 h, emodin 50 μM): −2.47
- Em + LPS vs. LPS/IFN (gene expression) ([3]; gene CXCL10, microarray, LPS/IFNγ 24 h, emodin 50 μM): −10.31
- Em + LPS vs. LPS/IFN (gene expression) ([3]; gene FPR2, microarray, LPS/IFNγ 24 h, emodin 50 μM): −33.81
- Em + LPS vs. LPS/IFN (gene expression) ([3]; gene H2-Oa, microarray, LPS/IFNγ 24 h, emodin 50 μM): −3.85
- Em + LPS vs. LPS/IFN (gene expression) ([3]; gene H2-Ob, microarray, LPS/IFNγ 24 h, emodin 50 μM): −6.42
- Em + LPS vs. LPS/IFN (gene expression) ([3]; gene IFIT1, microarray, LPS/IFNγ 24 h, emodin 50 μM): −11.94
- Em + LPS vs. LPS/IFN (gene expression) ([3]; gene IL1B, microarray, LPS/IFNγ 24 h, emodin 50 μM): −13.64
- Em + LPS vs. LPS/IFN (gene expression) ([3]; gene IL1RL1, microarray, LPS/IFNγ 24 h, emodin 50 μM): −10.78
- Em + LPS vs. LPS/IFN (gene expression) ([3]; gene IL6, microarray, LPS/IFNγ 24 h, emodin 50 μM): −3.25
- Em + LPS vs. LPS/IFN (gene expression) ([3]; gene IL12A, microarray, LPS/IFNγ 24 h, emodin 50 μM): −4.93
- Em + LPS vs. LPS/IFN (gene expression) ([3]; gene IL12B, microarray, LPS/IFNγ 24 h, emodin 50 μM): 2.47
- Em + LPS vs. LPS/IFN (gene expression) ([3]; gene IRF5, microarray, LPS/IFNγ 24 h, emodin 50 μM): −2.11
- Em + LPS vs. LPS/IFN (gene expression) ([3]; gene IRF7, microarray, LPS/IFNγ 24 h, emodin 50 μM): −4.20
- Em + LPS vs. LPS/IFN (gene expression) ([3]; gene MMP2, microarray, LPS/IFNγ 24 h, emodin 50 μM): −11.86
- Em + LPS vs. LPS/IFN (gene expression) ([3]; gene MMP9, microarray, LPS/IFNγ 24 h, emodin 50 μM): −28.87
- Em + LPS vs. LPS/IFN (gene expression) ([3]; gene MYH3, microarray, LPS/IFNγ 24 h, emodin 50 μM): −7.76
- Em + LPS vs. LPS/IFN (gene expression) ([3]; gene Mrc1, microarray, LPS/IFNγ 24 h, emodin 50 μM): 8.72
- Em + LPS vs. LPS/IFN (gene expression) ([3]; gene NOS2, microarray, LPS/IFNγ 24 h, emodin 50 μM): −3.77
- Em + LPS vs. LPS/IFN (gene expression) ([3]; gene PTGS2, microarray, LPS/IFNγ 24 h, emodin 50 μM): −3.99
- Em + LPS vs. LPS/IFN (gene expression) ([3]; gene RASGRP1, microarray, LPS/IFNγ 24 h, emodin 50 μM): −8.52
- Em + LPS vs. LPS/IFN (gene expression) ([3]; gene SELL, microarray, LPS/IFNγ 24 h, emodin 50 μM): −10.45
- Em + LPS vs. LPS/IFN (gene expression) ([3]; gene SOCS1, microarray, LPS/IFNγ 24 h, emodin 50 μM): −5.34
- Em + LPS vs. LPS/IFN (gene expression) ([3]; gene TLR4, microarray, LPS/IFNγ 24 h, emodin 50 μM): −4.71
- Em + LPS vs. LPS/IFN (gene expression) ([3]; gene TNF, microarray, LPS/IFNγ 24 h, emodin 50 μM): −2.01
- concentrations with no significant effect on cell proliferation (EO771 cells [4]): less than 50 μM
- adhesion of macrophages to a monolayer of tumor cells ([5]; emodin treatment of both macrophages and tumor cells): decreased the adhesion even further
- adhesion of macrophages to a monolayer of tumor cells ([5]; emodin treatment of either macrophages or tumor cells): significantly inhibited
